The EC50 is the concentration giving half of the maximal effect. By EC90 is commonly meant the point of the concentration-response curve where the effect stands at 90%.

The source of these data is PMC9797896 (Medicinal Chemistry Research, 2022).

In the experiment the test system is SARS-CoV-2 (Omicron variant, B.1.1.529/BA.2 sublineage). The experiment is described as follows: microbe, parasite or virus in culture. The conditions noted are these: for EC50 / EC90: Severe acute respiratory syndrome coronavirus 2, Vero C1008, 48 h; for EC90: read-out: 90% Reduction in Infectious Virus (EC90); for time to maximal effectiveness against the Omicron variant particles: after starting administration and treatment. Type of experiment: cell-based.

The mark [1] stands for this setting: read-out: 50% Reduction in Infectious Virus (EC50).
[2] abbreviates: read-out: 50% Reduction in Viral RNA Copy (EC50).

Several values for one entry are separate records, joined by “and”; a condition that tells them apart may be missing. Identical values can stand only once. Like-named read-outs stand apart in the source and are kept apart here.

Consider `O=c1[nH]cnc2c([C@@H]3N[C@H](CO)[C@@H](O)[C@H]3O)c[nH]c12` [Forodesine, forodesine], for which the “100% CPE Inhibitory Concentration (CPEIC100)” value is 1.69 ± 0.06 µM, the EC90 was found to be 2.2 ± 0.06 µM and the “time to maximal effectiveness against the Omicron variant particles” value is 4 to 10 h. Further, under setting [1], the 50% effective concentration (EC50) was around 700 nM. Further, the concentration for a half-maximal effect (EC50) under setting [2] came out at 730 ± 40 nM. Besides, the “100% CPE Inhibitory Concentration (CPEIC100)” value (listed as forodesine) was found to be 1.69 µM.
Regarding `CC(C)Nc1nc2cc(Cl)c(Cl)cc2n1[C@H]1O[C@@H](CO)[C@H](O)[C@@H]1O` [Maribavir, maribavir], the “100% CPE Inhibitory Concentration (CPEIC100)” value worked out at 7.97 ± 0.27 µM and the EC90 worked out at 12.3 ± 0.33 µM. In addition, under setting [1], the 50% effective concentration (EC50) was 3050 ± 130 nM. Further, the concentration giving a half-maximal response (EC50) under setting [2] turned out to be 3200 ± 140 nM.
Take `CC(C)C(=O)OC[C@H]1O[C@@H](n2ccc(NO)nc2=O)[C@H](O)[C@@H]1O` [Molnupiravir, molnupiravir]: the “100% CPE Inhibitory Concentration (CPEIC100)” value is 6.28 µM and 6.28 ± 0.28 µM; the concentration for an effect of 90% (EC90) worked out at 9.1 ± 0.31 µM. Moreover, the concentration for a half-maximal effect (EC50) under setting [1] was 2610 ± 100 nM. In addition, the concentration giving a half-maximal response (EC50) under setting [2] worked out at 2730 ± 110 nM.
In the case of `COc1nc(N)nc2c1ncn2[C@@H]1O[C@H](CO)[C@@H](O)[C@@H]1O` [Nelarabine, nelarabine], the EC90 was found to be 6.46 ± 0.18 µM. Besides, under setting [1], the EC50 was 1680 ± 80 nM. For the same molecule, the half-maximal effective concentration (EC50) under setting [2] turned out to be 1750 ± 80 nM.
Turning to `CCC(CC)COC(=O)[C@H](C)N[P@](=O)(OC[C@H]1O[C@@](C#N)(c2ccc3c(N)ncnn23)[C@H](O)[C@@H]1O)Oc1ccccc1` [Remdesivir, remdesivir], the “100% CPE Inhibitory Concentration (CPEIC100)” value is 5.99 µM and 5.99 ± 0.20 µM; the EC90 worked out at 8.01 ± 0.29 µM. Besides, the EC50 under setting [1] is 2070 ± 80 nM.
As for `CC(C)=CCNc1ncnc2c1ncn2[C@@H]1O[C@H](CO)[C@@H](O)[C@H]1O` [Riboprine, N^6-(2-Isopentenyl)adenosine], the “100% CPE Inhibitory Concentration (CPEIC100)” value was 1.21 µM and 1.21 ± 0.04 µM; the concentration for an effect of 90% (EC90) came out at 1.71 ± 0.05 µM; the “time to maximal effectiveness against the Omicron variant particles” value fell in the range of 4 to 10 h. In addition, the EC50 under setting [1] was around 450 nM. Besides, the concentration giving a half-maximal response (EC50) under setting [2] is 480 ± 30 nM.
Take `OC[C@H]1O[C@@H](n2cnc3c(N[C@@H]4CCOC4)ncnc32)[C@H](O)[C@@H]1O` [Tecadenoson, tecadenoson]: the “100% CPE Inhibitory Concentration (CPEIC100)” value was 7.73 ± 0.23 µM and the concentration for an effect of 90% (EC90) worked out at 11.9 ± 0.32 µM. The EC50 under setting [1] was 2900 ± 100 nM. The EC50 under setting [2] is 2950 ± 110 nM.
Turning to `Nc1ncnc2c1ncn2[C@@H]1O[C@H](CO)[C@@H](O)[C@@H]1O` [Vidarabine, Arabinosyladenine], the “100% CPE Inhibitory Concentration (CPEIC100)” value turned out to be 8.10 ± 0.25 µM and the EC90 turned out to be 12.6 ± 0.35 µM. Besides, the EC50 under setting [1] worked out at 3200 ± 130 nM. For the same molecule, the concentration for a half-maximal effect (EC50) under setting [2] was 3230 ± 130 nM.
